Laboratory results taken from patent US9820957B2, “Methods of treating autoimmunity” (IM Therapeutics, Inc., priority 2016, dated 2017).

Assays:
[1] = tested on: HLA-DQ8 antigen presenting cells with gliadin-responsive CD4 T cell receptor (TCR) transductant; test: Inhibition of DQ8 antigen presentation in vitro, gliadin-responsive TCR transductant, IL-2 ELISA; format: cell-based; conditions: for inhibition of gliadin-responsive TCR transductant (secreted IL-2): 4 hours with peptide and compound, then overnight with transductant; for IC50 compared between the enantiomers: gliadin-responsive TCR transductant
Description: (§1) Inhibition of DQ8 antigen presentation by the D- and L-enantiomers of α-methyldopa was tested and compared in vitro. HLA-DQ8 antigen presenting cells were cultured with a fixed concentration of peptide and a concentration of D- or L-α-methyldopa for 4 hours. TCR transductants were then added to each culture condition and cultured overnight. Secreted IL-2 from the TCR transductant was measured by ELISA for each condition.
(§2) In these figures, 0 represents the TCR transductant response to peptide without the addition of α-methyldopa. No antigen IL-2 responses (negative control) were very low at <2 pg/ml. Results are presented as mean+/− SEM.

[2] = tested on: HLA-DQ8 antigen presenting cells with insulin responsive CD4 T cell receptor (TCR) transductant; test: Inhibition of DQ8 antigen presentation in vitro, insulin responsive TCR transductant, IL-2 ELISA; format: cell-based; conditions: for inhibition of insulin responsive TCR transductant (secreted IL-2): 4 hours with peptide and compound, then overnight with transductant; for IC50 compared between the enantiomers: insulin responsive TCR transductant
Description: as §1, §2

DQ8-restricted T cell = test: Pharmacodynamics in DQ8 transgenic mice: ex vivo splenocytes stimulating a DQ8-restricted T cell to deamidated gliadin peptide; conditions: 4 mg by oral gavage daily for 5 days
Description: Ex vivo splenocytes were used to stimulate a DQ8-restricted T cell to a deamidated gliadin peptide.

[3] = cited from earlier work; for decarboxylation to α-methyl-dopamine in patients: Sjoerdsma et al. 1963, urine of treated patients
[4] = Oral pharmacokinetics in HLA-DQ8 transgenic mice, plasma by HPLC-MS; format: in vivo; conditions: oral gavage, 4 mg
Description: Separate cohorts of HLA-DQ8 transgenic mice (n=2) were gavaged with a specific dose of L- and D-α-methyldopa, followed by the collection of plasma 90 minutes later. […] Similarly, separate cohorts of mice (n=3) were gavaged with a specific enantiomer (D or L enantiomer) and dose (4 mg by gavage) of α-methyldopa followed by the collection of plasma at baseline, 1, 2, 4, 6, and 18 hours later. […] In these PK studies the Lower Limit of Quantification (LLOQ) was <2.5 ng/ml. Results are presented as mean+/− SEM.

Compound	inhibition of gliadin-responsive TCR transductant (secreted IL-2) [1]	IC50 compared between the enantiomers [1]	inhibition of insulin responsive TCR transductant (secreted IL-2) [2]	IC50 compared between the enantiomers [2]	inhibition of the DQ8-restricted T cell response to deamidated gliadin peptide (DQ8-restricted T cell)	response to positive control stimulus (anti-CD3) (DQ8-restricted T cell)	absorption in humans compared with the other isomer ([3]; Au et al. 1972)	decarboxylation to α-methyl-dopamine in patients [3]	pharmacologic activity ([3]; prior art view, Du et al., Gillespie et al. 1962)	time to maximum plasma concentration (Tmax) compared with the other enantiomer [4]
C[C@@](N)(Cc1ccc(O)c(O)c1)C(=O)O [D-α-methyldopa, D-α-Methyl-3,4-dihydroxyphenylalanine]	blocked in a dose-dependent manner	statistically similar IC50 values	blocked in a dose-dependent manner	statistically similar IC50 values	inhibition of the T cell response is observed	not different between the groups	much less readily absorbed	did not decarboxylate	no pharmacologic activity	
C[C@](N)(Cc1ccc(O)c(O)c1)C(=O)O [L-α-methyldopa, L-α-Methyl-3,4-dihydroxyphenylalanine, reference compound]	blocked in a dose-dependent manner	statistically similar IC50 values	blocked in a dose-dependent manner	statistically similar IC50 values	only for the D enantiomer	not different between the groups		α-methyl-dopamine did appear in the urine		slightly slower
